Reference: patent US10287259B2, “Selenazolidine and thiazolidine compounds for treating cancer and other diseases” (The Penn State Research Foundation, priority 2016, dated 2019)

Key:
[1] = tested on: Panc-1 cells; assay: Western blot analysis of Panc-1 lysates; type: cell-based
Method: Whole-cell lysates were made by subjecting AS-10 treated Panc-1 cells to RIPA lysis buffer (Thermo Scientific, USA) containing protease (Roche, USA) and phosphatase inhibitor cocktails (Sigma-Aldrich, USA) (Plano et al., 2016, J. Med. Chem. 1946-1959). Lysates were spun at 15,000 rpm for 10 minutes. Resulting supernatant was stored at −80° C. until use. NuPAGE gel 4-12% (Life Technologies, Carlsbad, Calif.) was used to resolve the lysates, followed by electro-transfer to PVDF membrane. After the transfer membrane was blocked with 5% non-fat milk and probed with different antibodies. Protein of interest were detected by using enhanced Chemiluminescent reagent (Life technologies, USA). Blots were stripped using Restore Western blot stripping buffer (Thermo Scientific, USA) to save time and samples.

[2] = tested on: HCT116 colon cancer xenograft; assay: Colon cancer xenograft tumor inhibition; type: in vivo
Method: Athymic nude mice were used to evaluate the tumor inhibitory effect of AS-10 against a xenograft model of colon cancer. Approximately, 5×10^6 cells (HCT116) were inoculated into both left and right flanks of mice. After eight days, vehicle (DMSO) or AS-10 (45.2 mg/Kg) were injected via IP injection three times per week for 18 days.

[3] = tested on: Panc-1 cells; assay: Colony formation assay; type: cell-based; settings: 48 h treatment, colonies for 17 days
Method: Crystal violet staining method was utilized for performing colony formation assay (Franken et al., 2006, Nat. protoc. 1:2315-2319). In brief, Panc-1 cells were treated with vehicle control (DMSO). 2.5 μM or 10 μM of AS-10 for 48 h. After 48 h treatment period, cells were trypsinized and live cells were counted using tryphan blue dye exclusion assay. Tissue culture plates of size 60×15 mm were seeded with 100 live cells from vehicle treated and 5000 live cells from AS-10 treated cells. Cells were allowed to form colonies for 17 days in DMEM free from DMSO or AS-10 at 37° C. in a 5% CO2 chamber. After 17 days' colonies were stained with 0.5% alcoholic crystal violet. Percentage Plating efficiency (PE) was calculated by the formula: % PE=number of colonies*100/number of cells plated. Data plotted as % relative PE.

[4] = tested on: NF-κB p65; assay: Immunocytochemistry for NF-κB p65 localization; type: cell-based; settings: Panc-1, 10 μM 6 h, TNF-α 30 min
Method: Immunocytochemistry was used to determine the translocation of p65 from cytoplasm to nucleus in presence of inflammatory stimuli either with vehicle or AS-10 (10 μM). In a 12 well plate, Panc-1 cells (1.6×10^5) were seeded on top of a small cover slip in DMEM medium. Cells were allowed to attach to the cover slip overnight at 37° C. incubator with 5% CO2. The next day, cells were treated with 10 μM AS-10 for 6 h and further stimulated with TNF-α (100 ng/mL, 3.9 nM) for 30 min. Exactly after 30 min plates were kept on ice and cells were fixed with 4% Formaldehyde Solution made in PBS for 15 min. Cells were washes three times with 1×PBS, followed by 1 h incubation in blocking medium (0.3% Triton X-100, 5% donkey serum, made in 1×PBS) at room temperature in dark. After blocking coverslips were incubated with primary antibody solution (primary antibody diluted 1:500 in 1% BSA solution containing 0.3% Triton X-100) over night at 4° C. Next day, primary antibody was removed and cover slips were washed three times with 1×PBS. Following incubation with 0.03% H2O2 for 15 minutes at room temperature in dark. After the incubation, secondary antibody (Alexa fluor 680) was added at dilution of 1:500 in 1% BSA containing 0.3% triton X-100 and further incubated for 1 hr. […]

[5] = tested on: BxPC3 cells; assay: MTT cell viability assay, BxPC3; type: cell-based; settings: Homo sapiens, BXPC-3, different time points (24, 48, 72 h)
Method: (§1) MTT (3-(4,5-dimethylthiazol-2-yl)-2,5-diphenyltetrazolium) assay was performed to determine the effect of AS-10 on cancer cell viability (Plano et al., 2016, J. Med. Chem. 1946-1959; Alcolea et al., 2012, Eur. J. Med. Chem. 113:134-144; Kumar et al., 2014, Eur. J. Med. Chem. 81:267-276). Briefly, 3×10^3 cells were treated with different concentrations of AS-10 in triplicate in a 96-well plate for different time points. MTT solution (20 μL of 5.0 mg/mL solution) was added to each well, three hours prior to termination time point and incubated at 37° C. Resultant formazan crystals, at termination time point, were dissolved in 50 μL DMSO. The plate was subjected to a 96-well multiscanner (Dynex Technologies, MRX Revelation; Chantilly, Va., USA) for measuring the optical densities at 570 nm and 630 nm. IC50 values were determined by performing non-linear regression using Graphpad Prism software.
To test the anti-cancer activity of AS-10 in pancreatic cancer (PC) cell lines, a MTT assay was performed. PC cell lines, Panc-1 and BxPC3, were treated with AS-10 at different doses at different time points (24, 48, and 72 h). Resulting cells were subjected to MTT cell viability assay. […] After 48 h, live cells were counted and plated in a new petri dish. […] At the end of 17 days the colonies were counted and compared to the untreated cells.

[6] = tested on: pancreatic cancer cells; assay: MTT cell viability assay, pancreatic cancer (PC) cells; type: cell-based; settings: Pancreatic cancer cell
Method: as §1

SMILES: CC(=O)Oc1ccccc1C(=O)/N=C1\[Se]CCN1C(=O)c1ccccc1OC(C)=O [AS-10, 2-((3-(2-acetoxybenzoyl)-1,3-selenazolidin-2-ylidene)carbamoyl)phenyl acetate]
- cleaved caspase 8 (active) [1]: not detected
- cleavage of caspase 9 ([1]; 10 μM): profound cleavage
- acetylation of histones H3 and H4 ([1]; 10 μM, increasing time points): able to acetylate histones
- cell cycle arrest proteins p21 and p27 ([1]; 10 μM, from 6 h for p21 and 12 h for p27): increase
- PARP cleavage ([1]; Panc-1, 48 h, low dose AS-10 2.5 μM, gemcitabine 50 μM): no effect on PARP cleavage
- IκBα degradation ([1]; cytosolic lysates, TNF-α stimulation, increasing dose): IκBα is not degraded
- active caspase 3 (cleaved caspase 3) and cleaved PARP ([1]; increasing concentration, 24 h): increase
- expression of Bcl-xL and Mcl-1 ([1]; time dependent): inhibited the expression
- systemic toxicity from body weights of mice ([2]; 45.2 mg/Kg IP three times per week for 18 days): no apparent no systemic toxicity
- tumor growth inhibition compared to vehicle treated mice ([2]; 45.2 mg/kg IP three times per week for 18 days, athymic nude mice): ~70%
- colonies formed compared to vehicle treated cells [3]: effectively decreased the amount of colonies formed
- translocation of p65 to the nucleus [4]: unable to translocate to the nucleus
- IC50 [5]: 1000 to 5000 nM
- EC50 ([6]; in vitro, read-out: EC50, reduction of PC cell growth): 2500 to 5000 nM
- IC50 ([6]; read-out: IC50, cytotoxicity to pancreatic cancer cells): 500 to 2500 nM
